Assay results taken from ChEMBL document CHEMBL1201862, “PubChem BioAssay data set” (2004).
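1) Cells in 96-well plates. 2) Compound, 48 h, 5 concentrations. 3) Linear interpolation between surrounding doses. 4) Unreached endpoint = highest concentration. Here, GI50 denotes the concentration required for 50% inhibition of growth.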 The source made the active and inactive calls. No stated cut-off is given here; in the data, active = GI50 up to about 1.1 µM and inactive = higher.

Experiments:
Experiment in all cases: NCI tumour cell line growth inhibition, 48 h
[1] = tested on: A498
[2] = tested on: ACHN
[3] = tested on: EKVX
[4] = tested on: HCT-116
[5] = tested on: HT-29
[6] = tested on: IGROV-1
[7] = tested on: K562
[8] = tested on: MDA-MB-435
[9] = tested on: NCI-H23
[10] = tested on: OVCAR-4
[11] = tested on: OVCAR-8
[12] = tested on: RPMI-8226
[13] = tested on: RXF 393
[14] = tested on: SF-539
[15] = tested on: SK-MEL-28
[16] = tested on: SK-OV-3
[17] = tested on: SNB-19
[18] = tested on: SW-620
[19] = tested on: U-251
[20] = tested on: UACC-257

Measured: GI50

O=C(O)c1ccc([N+](=O)[O-])c(P(=O)(O)O)c1
inactive: [1] > 100 µM | [2] > 100 µM | [3] > 100 µM | [4] > 100 µM | [5] > 100 µM | [6] > 100 µM | [7] > 100 µM | [8] > 100 µM | [9] > 100 µM | [10] > 100 µM | [11] > 100 µM | [12] > 100 µM | [13] > 100 µM | [14] > 100 µM | [15] > 100 µM | [16] > 100 µM | [17] > 100 µM | [18] > 100 µM | [19] > 100 µM | [20] > 100 µM

O=C(c1ccccc1)N(C(=O)c1ccccc1)c1nc(SCc2ccccc2)ns1
inactive: [1] 27.9 µM | [2] 41.6 µM | [3] 25.7 µM | [4] 23.8 µM | [5] 25.5 µM | [6] 36.9 µM | [7] 29.1 µM | [8] 29.4 µM | [9] 24 µM | [10] 39.9 µM | [11] 36.6 µM | [12] 19.6 µM | [13] 31.7 µM | [14] 22.3 µM | [15] 30.8 µM | [16] 43.2 µM | [17] 50.6 µM | [18] 37.2 µM | [19] 19.2 µM | [20] 22.2 µM

CC/C(Cl)=N\OC(=O)Nc1ccc(F)c([N+](=O)[O-])c1
inactive: [1] 19.9 µM | [2] 1.92 µM | [3] 19.2 µM | [4] 7 µM | [5] 24.9 µM | [6] 17.9 µM | [7] 3.05 µM | [8] 16.3 µM | [9] 13.8 µM | [10] 4.99 µM | [11] 16.6 µM | [12] 2.94 µM | [13] 16.7 µM | [14] 5.32 µM | [15] 16.6 µM | [16] 19.1 µM | [17] 17.5 µM | [18] 4.15 µM | [19] 21.5 µM | [20] 17.6 µM

O=C1c2ccccc2C(=O)c2c1ccc1nc3c(nc21)-c1c2ccccc2cc2cccc-3c12
inactive: [1] > 50.9 µM | [2] 16.1 µM | [3] 18.3 µM | [4] 5.56 µM | [5] 27 µM | [6] 9.16 µM | [7] > 29.6 µM | [8] 18.6 µM | [9] 41.6 µM | [10] > 70.1 µM | [11] 27.4 µM | [12] 39.5 µM | [13] 39.4 µM | [14] 21.4 µM | [15] > 92.7 µM | [16] 41.1 µM | [17] 38.4 µM | [18] > 63.1 µM | [19] 31.3 µM | [20] > 100 µM

C[N+]12CCCCC1C(CN1C(=O)Cc3c4ccccc4c(c4ccccc34)CC1=O)CCC2 (stereo not given)
inactive: [1] > 100 µM | [2] > 100 µM | [3] > 100 µM | [4] > 100 µM | [5] > 100 µM | [6] > 100 µM | [7] > 100 µM | [8] > 100 µM | [9] > 100 µM | [10] > 100 µM | [11] > 100 µM | [12] > 100 µM | [13] > 100 µM | [14] > 100 µM | [15] > 100 µM | [16] > 100 µM | [17] > 100 µM | [18] > 100 µM | [19] > 100 µM | [20] > 100 µM

CCC/C(Cl)=N\OC(=O)Nc1ccc(Br)cc1
inactive: [1] 16.9 µM | [2] 5.05 µM | [3] 14.6 µM | [4] 9.48 µM | [5] 17.7 µM | [6] 12.8 µM | [7] 1.94 µM | [8] 14.5 µM | [9] 17.4 µM | [10] 21.5 µM | [11] 14.6 µM | [12] 2.96 µM | [13] 16.6 µM | [14] 17.5 µM | [15] 18.2 µM | [16] 16.8 µM | [17] 29.5 µM | [18] 2.36 µM | [19] 16.4 µM | [20] 13.5 µM

Nc1nc(=O)c2c([nH]1)NCC(CCNc1ccc(C(=O)O)cc1)N2 (stereo not given)
inactive: [1] > 100 µM | [2] > 100 µM | [3] > 100 µM | [4] > 100 µM | [5] > 100 µM | [6] > 100 µM | [7] > 100 µM | [8] > 100 µM | [9] > 100 µM | [10] > 100 µM | [11] > 100 µM | [12] > 100 µM | [13] > 100 µM | [14] > 100 µM | [15] > 100 µM | [16] > 100 µM | [17] > 100 µM | [18] > 100 µM | [19] > 100 µM | [20] > 100 µM

CC(C)=CCc1c(O)cc2oc(-c3ccc(O)cc3O)cc(=O)c2c1O
inactive: [1] 44.2 µM | [2] 26.9 µM | [3] 42.3 µM | [4] 25.1 µM | [5] 23.1 µM | [6] 33.5 µM | [7] 8.87 µM | [8] 26.4 µM | [9] 24.6 µM | [10] 20.2 µM | [11] 36.7 µM | [12] 17.4 µM | [13] 26.4 µM | [14] 27.4 µM | [15] 31.6 µM | [16] 36 µM | [17] 40.6 µM | [18] 28 µM | [19] 32.2 µM | [20] 30.9 µM

O=C1OC(C(O)C(O)C(O)CO)C(O)C1O (stereo not given)
inactive: [1] > 100 µM | [2] > 100 µM | [3] > 100 µM | [4] > 100 µM | [5] > 100 µM | [6] > 100 µM | [7] > 100 µM | [8] > 100 µM | [9] > 100 µM | [10] > 100 µM | [11] > 100 µM | [12] > 100 µM | [13] > 100 µM | [14] > 100 µM | [15] > 100 µM | [16] > 100 µM | [17] > 100 µM | [18] > 100 µM | [19] > 100 µM | [20] > 100 µM

COc1cc2c(cc1OC)-c1c(oc3cc(OC4OC(CO)C(O)C(O)C4O)c(OC)cc3c1=O)C(O)O2 (stereo not given)
inactive: [1] > 100 µM | [2] > 100 µM | [3] > 100 µM | [4] > 100 µM | [5] > 100 µM | [6] > 100 µM | [7] > 100 µM | [8] > 100 µM | [9] > 100 µM | [10] > 100 µM | [11] > 100 µM | [12] > 100 µM | [13] > 100 µM | [14] > 100 µM | [15] > 100 µM | [16] > 100 µM | [17] > 100 µM | [18] > 100 µM | [19] > 100 µM | [20] > 100 µM
